Measurements from patent US20260184710A1, “CASITAS B-LINEAGE LYMPHOMA PROTOONCOGENE B (CBL-B) DEGRADING COMPOUNDS AND ASSOCIATED METHODS OF USE” (Arvinas Operations, Inc., priority 2022, published 2026).

Biological target: T1, Cbl-b (Homo sapiens, UniProt Q13191)
T1 construct: Cbl-b-HiBit KI Jurkat Cells were purchased from Promega; host or cells: Cbl-b-HiBiT knock-in Jurkat cells
Assay: Cbl-b Degradation Method B (Nano-Glo HiBiT lytic detection)
Assay type: cell-based
Details: Cbl-b-HiBit KI Jurkat Cells, incubated at least 6-24 hours; for DC50: half maximal degradation, read-out: Cbl-b Degredation Method B IC50; for Dmax: maximum degradation observed, read-out: Cbl-b Degredation Method B Dmax (%)
Experimental: Cbl-b Degradation Method B [table] Cbl-b-HiBit KI Jurkat Cells were purchased from Promega, and cell media consisted of RPMI 1640 with 10% […] and 1% pen/strep. The cells were counted, measured for viability, and 35 μL of the cell solution was seeded into 384 well flat bottom plates at a ratio of 20,000 cells per 35 μL. After which, the plates were incubated for ˜24 hours at 37° C. and 5% CO2. Compounds were ordered from Evotec in a 384 well plate at a 1 mM top concentration in DMSO and serially diluted 1:3 in DMSO for an 11-point dose response. Using the Bravo instrument, 1 uL of compound solution or DMSO was transferred to 125 uL of media. Each well was treated with 5 μL of compound plus media mixture or DMO and subsequently incubated for at least 6-24 hours at 37° C. and 5% CO2. After incubation, 30 μL of either NanoGlo media was added to each cell, and the plates read on the Synergy Neo2 machine. The concentration of an exemplary compound that leads to half maximal degradation (DC50) as well as the maximum degradation observed (Dmax, conventionally expressed as a percentage of control) is shown below in Table 2.

T1 sequence (Q13191 whole entry): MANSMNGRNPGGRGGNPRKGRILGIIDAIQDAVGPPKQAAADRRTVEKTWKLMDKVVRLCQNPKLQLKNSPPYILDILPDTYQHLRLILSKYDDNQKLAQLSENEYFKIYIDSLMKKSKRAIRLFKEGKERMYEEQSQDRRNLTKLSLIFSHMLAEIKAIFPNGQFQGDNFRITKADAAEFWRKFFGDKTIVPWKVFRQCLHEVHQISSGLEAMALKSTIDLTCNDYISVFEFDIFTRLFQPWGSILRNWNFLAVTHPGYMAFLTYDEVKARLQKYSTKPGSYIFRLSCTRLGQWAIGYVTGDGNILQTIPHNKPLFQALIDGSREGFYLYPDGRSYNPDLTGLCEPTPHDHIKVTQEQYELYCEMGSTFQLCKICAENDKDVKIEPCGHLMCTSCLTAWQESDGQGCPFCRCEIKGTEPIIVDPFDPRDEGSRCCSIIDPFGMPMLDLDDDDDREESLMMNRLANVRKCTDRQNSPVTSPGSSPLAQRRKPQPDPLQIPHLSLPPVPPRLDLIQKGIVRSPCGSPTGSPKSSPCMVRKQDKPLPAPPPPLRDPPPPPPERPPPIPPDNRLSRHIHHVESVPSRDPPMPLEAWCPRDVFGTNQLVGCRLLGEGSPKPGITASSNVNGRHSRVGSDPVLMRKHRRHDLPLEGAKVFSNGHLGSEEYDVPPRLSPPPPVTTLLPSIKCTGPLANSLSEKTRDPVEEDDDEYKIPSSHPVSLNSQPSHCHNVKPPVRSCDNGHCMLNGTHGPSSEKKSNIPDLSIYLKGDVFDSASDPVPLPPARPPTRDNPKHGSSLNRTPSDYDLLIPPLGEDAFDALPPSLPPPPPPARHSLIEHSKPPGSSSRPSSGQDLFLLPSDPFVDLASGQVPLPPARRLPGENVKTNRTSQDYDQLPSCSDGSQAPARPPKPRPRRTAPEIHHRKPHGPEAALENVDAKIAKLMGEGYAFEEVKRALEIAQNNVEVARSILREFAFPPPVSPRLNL

| DC50 [nM] | Dmax [%] | Compound |
| --- | --- | --- |
| < 5 | 35 to 70 | Cn1cnnc1C[C@]1(c2cccc(N3Cc4c(cc(CN5CCN(C[C@H]6CC[C@H](OC7CCN(c8ccc9c(c8F)CN(C8CCC(=O)NC8=O)C9=O)CC7)CC6)CC5)cc4C(F)(F)F)C3=O)c2)C[C@@H](C#N)C1 (stereo partly shown) [Example 14, (1s, 3s)-3-[(4-methyl-4H-1,2,4-triazol-3-yl)methyl]-3-(3-{1-oxo-6-[(4-{[(1r, 4r)-4-({1-[2-(2,6-dioxopiperidin-3-yl)-4-fluoro-1-oxo-2,3-dihydro-1H-isoindol-5-yl]piperidin-4-yl}oxy)cyclohexyl]methyl}piperazin-1-yl)methyl]-4-(trifluoromethyl)-2,3-dihydro-1H-isoindol-2-yl}phenyl)cyclobutane-1-carbonitrile] |
| > 500 | – | Cn1cnnc1CC1(c2cccc(N3Cc4c(cc(CN5CCC(C(C)(C)N6CCN(c7ccc8c(c7)C(=O)N(C7CCC(=O)NC7=O)C8=O)CC6)CC5)cc4C(F)(F)F)C3=O)c2)COC1 (stereo not shown) [Example 59, 2-(2,6-dioxopiperidin-3-yl)-5-{4-[2-(1-{[2-(3-{3-[(4-methyl-4H-1,2,4-triazol-3-yl)methyl]oxetan-3-yl}phenyl)-3-oxo-7-(trifluoromethyl)-2,3-dihydro-1H-isoindol-5-yl]methyl}piperidin-4-yl)propan-2-yl]piperazin-1-yl}-2,3-dihydro-1H-isoindole-1,3-dione] |
| < 5 | 35 to 70 | CC(C)n1c(=O)n(C2CCC(=O)NC2=O)c2ccc(N3CCC(CN4CCC5(CC4)CN(c4cc6c(c(C(F)(F)F)c4)CN(c4cccc([C@]7(Cc8nncn8C)C[C@@H](C#N)C7)c4)C6=O)C5)CC3)cc21 (stereo partly shown) [Example 192, (1r,3r)-3-(3-{6-[7-({1-[1-(2,6-dioxopiperidin-3-yl)-2-oxo-3-(propan-2-yl)-2,3-dihydro-1H-1,3-benzodiazol-5-yl]piperidin-4-yl}methyl)-2,7-diazaspiro[3.5]nonan-2-yl]-1-oxo-4-(trifluoromethyl)-2,3-dihydro-1H-isoindol-2-yl}phenyl)-3-[(4-methyl-4H-1,2,4-triazol-3-yl)methyl]cyclobutane-1-carbonitrile] |
| < 5 | 35 to 70 | CC1c2nc(N3CCC(O[C@H]4CC[C@H](CN5[C@H](C)CN(Cc6cc7c(c(C(F)(F)F)c6)CN(c6cccc(C8(Cc9nncn9C)COC8)c6)C7=O)C[C@H]5C)CC4)CC3)ccc2C(=O)N1C1CCC(=O)NC1=O (stereo partly drawn) [Example 250, 3-[7-methyl-5-oxo-2-(4-{[(1r*,4r*)-4-{[(2R,6R)-2,6-dimethyl-4-{[2-(3-{3-[(4-methyl-4H-1,2,4-triazol-3-yl)methyl]oxetan-3-yl}phenyl)-3-oxo-7-(trifluoromethyl)-2,3-dihydro-1H-isoindol-5-yl]methyl}piperazin-1-yl]methyl}cyclohexyl]oxy}piperidin-1-yl)-5H,6H,7H-pyrrolo[3,4-b]pyridin-6-yl]piperidine-2,6-dione] |
| > 500 | – | Cn1cnnc1C[C@]1(c2cccc(N3Cc4c(cc(CN5CCN(C[C@H]6CC[C@H](OC7CCN(c8ccc(F)c(C(=O)NC9CCC(=O)NC9=O)c8)CC7)CC6)CC5)cc4C(F)(F)F)C3=O)c2)C[C@H](C#N)C1 (stereo partly shown) [Example 202, N-(2,6-dioxopiperidin-3-yl)-2-fluoro-5-(4-{[(1r,4r)-4-({4-[(3-oxo-2-{3-[(1r,3r)-3-cyano-1-[(4-methyl-4H-1,2,4-triazol-3-yl)methyl]cyclobutyl]phenyl}-7-(trifluoromethyl)-2,3-dihydro-1H-isoindol-5-yl)methyl]piperazin-1-yl}methyl)cyclohexyl]oxy}piperidin-1-yl)benzamide] |
| < 5 | > 70 | Cn1cnnc1CC1(c2cccc(N3Cc4c(cc(CN5CCN(C[C@H]6CC[C@H](OC7CCN(c8ccc9c(c8Cl)CN(C8CCC(=O)NC8=O)C9=O)CC7)CC6)CC5)cc4C(F)(F)F)C3=O)c2)COC1 (stereo partly shown) [Example 24, 3-[4-chloro-1-oxo-5-(4-{[(1r,4r)-4-[(4-{[2-(3-{3-[(4-methyl-4H-1,2,4-triazol-3-yl)methyl]oxetan-3-yl}phenyl)-3-oxo-7-(trifluoromethyl)-2,3-dihydro-1H-isoindol-5-yl]methyl}piperazin-1-yl)methyl]cyclohexyl]oxy}piperidin-1-yl)-2,3-dihydro-1H-isoindol-2-yl]piperidine-2,6-dione] |
| 5 to 50 | 35 to 70 | Cc1cc(N2C[C@@H]3C[C@H]2CN3CC2CCC3(CC2)CN(c2cc4c(c(C(F)(F)F)c2)CN(c2cccc([C@]5(Cc6nncn6C)C[C@@H](C#N)C5)c2)C4=O)C3)c(F)c2c1C(=O)N(C1CCC(=O)NC1=O)C2 (stereo partly drawn) [Example 271, (1r,3r)-3-{3-[6-(7-{[(1S,4S)-5-[2-(2,6-dioxopiperidin-3-yl)-4-fluoro-7-methyl-1-oxo-2,3-dihydro-1H-isoindol-5-yl]-2,5-diazabicyclo[2.2.1]heptan-2-yl]methyl}-2-azaspiro[3.5]nonan-2-yl)-1-oxo-4-(trifluoromethyl)-2,3-dihydro-1H-isoindol-2-yl]phenyl}-3-[(4-methyl-4H-1,2,4-triazol-3-yl)methyl]cyclobutane-1-carbonitrile] |
| > 500 | – | Cn1cnnc1CC1(c2cccc(N3Cc4c(cc(CN5CCC(CN6CCN(c7ccc8c(c7)C(=O)N(C7CCC(=O)NC7=O)C8=O)CC6)C5)cc4C(F)(F)F)C3=O)c2)COC1 (stereo not shown) [Example 80, 2-(2,6-dioxopiperidin-3-yl)-5-{4-[(1-{[2-(3-{3-[(4-methyl-4H-1,2,4-triazol-3-yl)methyl]oxetan-3-yl}phenyl)-3-oxo-7-(trifluoromethyl)-2,3-dihydro-1H-isoindol-5-yl]methyl}pyrrolidin-3-yl)methyl]piperazin-1-yl}-2,3-dihydro-1H-isoindole-1,3-dione] |
| > 500 | – | Cn1cnnc1CC1(c2cccc(N3Cc4c(cc(CN5CCC(CC6CCN(c7ccc8c(c7)C(=O)N(C7CCC(=O)NC7=O)C8=O)CC6)CC5)cc4C(F)(F)F)C3=O)c2)COC1 (stereo not shown) [Example 78, 2-(2,6-dioxopiperidin-3-yl)-5-{4-[(1-{[2-(3-{3-[(4-methyl-4H-1,2,4-triazol-3-yl)methyl]oxetan-3-yl}phenyl)-3-oxo-7-(trifluoromethyl)-2,3-dihydro-1H-isoindol-5-yl]methyl}piperidin-4-yl)methyl]piperidin-1-yl}-2,3-dihydro-1H-isoindole-1,3-dione] |
| > 500 | – | Cn1cnnc1CC1(c2cccc(N3Cc4c(cc(CN5CCCC(OC6CCN(c7ccc8c(c7F)CN(C7CCC(=O)NC7=O)C8=O)CC6)C5)cc4C(F)(F)F)C3=O)c2)COC1 (stereo not shown) [Example 156, 3-(4-fluoro-5-{4-[(1-{[2-(3-{3-[(4-methyl-4H-1,2,4-triazol-3-yl)methyl]oxetan-3-yl}phenyl)-3-oxo-7-(trifluoromethyl)-2,3-dihydro-1H-isoindol-5-yl]methyl}piperidin-3-yl)oxy]piperidin-1-yl}-1-oxo-2,3-dihydro-1H-isoindol-2-yl)piperidine-2,6-dione] |
| > 500 | – | Cn1cnnc1CC1(c2cccc(-n3cc4ccc(CN5CCN(C[C@H]6CC[C@H](OC7CCN(c8ccc9c(c8F)CN(C8CCC(=O)NC8=O)C9=O)CC7)CC6)CC5)cc4n3)c2)COC1 (stereo partly shown) [Example 207, 3-[4-fluoro-1-oxo-5-(4-{[(1r,4r)-4-[(4-{[2-(3-{3-[(4-methyl-4H-1,2,4-triazol-3-yl)methyl]oxetan-3-yl}phenyl)-2H-indazol-6-yl]methyl}piperazin-1-yl)methyl]cyclohexyl]oxy}piperidin-1-yl)-2,3-dihydro-1H-isoindol-2-yl]piperidine-2,6-dione] |
| > 500 | – | Cn1cnnc1CC1(c2cccc(N3Cc4c(cc(CN5CCC(c6ccc7c(c6)C(=O)N(C6CCC(=O)NC6=O)C7=O)CC5)cc4C(F)(F)F)C3=O)c2)COC1 (stereo not shown) [Example 33, 2-(2,6-dioxopiperidin-3-yl)-5-(1-{[2-(3-{3-[(4-methyl-4H-1,2,4-triazol-3-yl)methyl]oxetan-3-yl}phenyl)-3-oxo-7-(trifluoromethyl)-2,3-dihydro-1H-isoindol-5-yl]methyl}piperidin-4-yl)-2,3-dihydro-1H-isoindole-1,3-dione] |
| > 500 | – | Cn1cnnc1CC1(c2cccc(N3Cc4c(cc(CNC5CCN(c6ccc7c(c6)C(=O)N(C6CCC(=O)NC6=O)C7=O)CC5)cc4C(F)(F)F)C3=O)c2)COC1 (stereo not shown) [Example 38, 2-(2,6-dioxopiperidin-3-yl)-5-[4-({[2-(3-{3-[(4-methyl-4H-1,2,4-triazol-3-yl)methyl]oxetan-3-yl}phenyl)-3-oxo-7-(trifluoromethyl)-2,3-dihydro-1H-isoindol-5-yl]methyl}amino)piperidin-1-yl]-2,3-dihydro-1H-isoindole-1,3-dione] |

| Compound | DC50 [nM] | Dmax [%] |
| --- | --- | --- |
| Cn1cnnc1CC1(c2cccc(N3Cc4c(cc(CN5CCC(CN(C)[C@H]6C[C@H](Oc7ccc8c(c7)C(=O)N(C7CCC(=O)NC7=O)C8=O)C6)CC5)cc4C(F)(F)F)C3=O)c2)COC1 (stereo partly shown) [Example 60, 2-(2,6-dioxopiperidin-3-yl)-5-[(1r,3r)-3-{methyl[(1-{[2-(3-{3-[(4-methyl-4H-1,2,4-triazol-3-yl)methyl]oxetan-3-yl}phenyl)-3-oxo-7-(trifluoromethyl)-2,3-dihydro-1H-isoindol-5-yl]methyl}piperidin-4-yl)methyl]amino}cyclobutoxy]-2,3-dihydro-1H-isoindole-1,3-dione] | > 500 | – |
